Data set [1] concerns peripheral blood mononuclear cells (PBMC). Description: Mixed lymphocyte culture, tritiated thymidine incorporation. The class given is cell-based. Conditions: 5 days culture, 18 hours pulse. The protocol: In particular embodiments, immunosuppression induced by halogen or chalcogenide compounds is assessed by measuring T cell proliferation, e.g., in response to activated antigen presenting cells. Essentially a mixed lymphocyte reaction, this assay exploits that fact that T cell exposure to presented antigens result in T cell activation and proliferation, as well as supportive increases in DNA synthesis. […] Irradiation results in the presentation of numerous antigens to antigen presenting cells, thus the irradiated cells serve as potent activators of T cells. By mixing the irradiated cells with the non-irradiated cells, strong T cell proliferation will occur. This proliferation can be measured using any proliferation assay, as would be commonly known to the skilled artisan. In one embodiment, proliferation is assessed by measuring DNA synthesis. Mixed PBMC were cultured in the presence or absence of halogen or chalcogenide compounds for 5 days, and then pulsed with tritiated thymidine for 18 hours to label newly synthesized DNA. The degree of labeling is directly correlated with the degree of T cell activation, thus low levels of labeling correlate with immunosuppression.
PBMC were either irradiated with 3500 rads (Ax and Bx) or not (A and B). […] Cells were lysed, the lysate filtered to trap the DNA on the filter and the filters counted in a scintillation counter. […]

The test system of data set [2] is mouse model of heart attack. Description: Mouse LAD ligation after two days of drinking water containing NaI, infarct size. It counts as in vivo. The protocol: In order to examine the effect of pre-treatment with drinking water containing NaI on myocardial infarct size in a mouse model of heart attack, three groups of mice were provided with drinking water containing various concentrations of iodide to achieve dosages of 0.07 mg/kg/day (normal drinking water) for the first group; 0.77 mg/kg/day for the second group; or 7.07 mg/kg/day for the third group, for two days immediately prior to open chest ligation of the left descending coronary artery (LAD ligation) to initiate ischemia. A fourth group of mice was provided with normal drinking water for the two days prior to the initiation of ischemia, but at 55 minutes post initiation of ischemia, either vehicle (saline) or test agent (NaI) was injected into the femoral vein of each of these mice. […] After two hours of reperfusion, infarct size was measured by morphometry (FIG. 1). To be certain that all animals in the study were treated in a similar way, the area at risk (AAR) as a proportion of the left ventricle was determined (FIG. 8). Area at risk (AAR) and infarct size (Inf) were measured using the specific dyes TTC and Evans blue. Processed images were generated in an unbiased way by setting constant thresholds and allowing Photoshop® to generate the images that were quantitated to generate the data presented in FIG. 8.

In data set [3] the test system is mouse model of chronic heart failure. Description: Mouse chronic heart failure after LAD ligation, iodide in drinking water, echocardiography. It counts as in vivo. The settings on record: drinking water 0.77 mg/kg/day iodide from LAD ligation for 12 weeks vs normal drinking water. The protocol:
In order to examine the effect of drinking water containing NaI on chronic heart failure following heart attack in a mouse model, two groups of mice were provided with drinking water lacking iodide or drinking water containing 0.77 mg/kg/day iodide starting immediately following open chest ligation of the left descending coronary artery (LAD ligation) to initiate ischemia, and continuing until the end of the study, which lasted 12 weeks. Prior to the LAD ligation and at 1 week, 2 weeks, 4 weeks, 8 weeks, and 12 weeks following the LAD ligation, mice were examined by echocardiography to determine their left ventricle ejection fraction and their left ventricle fractional shortening.

Data set [4] deals with rat model of acute myocardial infarction (AMI). Description: Rat acute myocardial infarction (30 min LAD occlusion), plasma cTpnI and infarct size. The class given is in vivo. Conditions: 1 mg/kg i.v. bolus, vs placebo. The protocol: Male CD®, IGS Rats (300-450 g) were subjected to 30 minutes of LAD occlusion followed by 24-30 hrs of reperfusion. 200-400 uL of blood was drawn at 4 and 24¬30 hrs post-reperfusion for plasma cTpnI measurements by EIA. After the 24-30 hr blood draw, the LAD was re-occluded, and the heart was excised following i.v. administration of Evans Blue. The hearts were frozen overnight, sectioned, and stained with triphenyl tetrazolium chloride for subsequent blinded infarct analysis.
Rats were anesthetized with a ketamine/xylazine mixture (100 mg/kg and 10 mg/kg, respectively) and maintained under 2-3% isoflurane in 100% medical oxygen after intubation with a 16 gauge angiocatheter sheath (Terumo® Surflo i.v. catheter, 16G×2″, VWR Cat. #TESR-OX1651CA). Animals were ventilated using a Harvard Apparatus Model 683 small animal ventilator equipped with a 5 cc cylinder at a tidal volume of 1.5-2.0 mL/stroke and a respiratory rate of 105 strokes/min. With the rat lying on its right side, animal fur was removed from the surgical area with clippers and then cleaned with alcohol pads. The heart beat was visualized through the chest wall and a dorsoventral incision in the left chest wall was made directly over the beating heart. The underlying fascia was dissected away to reveal the ribs and intercostal muscles. […]

The test system of data set [5] is mouse model of heart attack. The experiment in a line: Mouse LAD ligation, NaI i.v. pretreatment before ischemia, infarct size by morphometry. The class given is in vivo. The protocol:
To determine whether pretreatment with NaI prior to heart attack improves heart attack outcome, open chest ligation experiments were performed in mice where either vehicle (saline) or test agent (NaI) was injected into the femoral vein of each mouse either 5 minutes or 48 hours before initiation of ischemia. Open chest ligation of the left descending coronary artery (LAD ligation) was then performed, and the heart muscle was reperfused by releasing the ligature at 60 minutes post initiation of ischemia. After 2 hours of reperfusion, infarct size was measured by morphometry as described above (FIG. 3). Three groups of mice were utilized in this study, including a saline vehicle group (n=1) and two test groups that received 1 mg/kg NaI 5 minutes before LAD ligation (n=4) or 1 mg/kg NaI 48 hours before LAD ligation (n=1).

The subject of data set [6] is mouse model of heart attack. The experiment in a line: Transthoracic echocardiography of left ventricle after myocardial ischemia and reperfusion. The class given is in vivo. The settings on record: FIG. 4; single intravenous administration two days prior to ligation-induced ischemia. On the procedure: For each of the sets of bars for Ejection Fraction and Fractional Shortening, the bars from left to right correspond to the bars from top to bottom shown in the legend.
In vivo transthoracic echocardiography of the left ventricle (LV) using a 30-MHz RMV scanhead interfaced with a Vevo 770 (Visualsonics) was performed, and two-dimensional echocardiography images were obtained. LV end-diastolic diameter (EDD) and LV end-systolic diameter (ESD) were measured at a day before for a baseline and one and 4 weeks after myocardial ischemia and reperfusion. LV percent fractional shortening (FS) and LV ejection fraction (EF) were calculated.

Data set [7] deals with mouse model of heart attack. The experiment in a line: Mouse LAD ligation ischemia/reperfusion, NaI i.v. before reperfusion, infarct size by morphometry. The class given is in vivo. The protocol: In order to examine the effect of NaI on myocardial infarct size in a mouse model of heart attack, open chest ligation of the left descending coronary artery (LAD ligation) was performed in mice. At 55 minutes post initiation of ischemia, either vehicle (saline) or test agent (NaI) was injected into the femoral vein of each mouse. The heart muscle was reperfused by releasing the ligature at 60 minutes post initiation of ischemia. After 2 hours of reperfusion, infarct size was measured by morphometry (FIG. 1). Five groups of mice were utilized in this study, including a saline vehicle group (n=3) and […] test groups that received 0.25 mg/kg (n=4), 0.5 mg/kg (n=5), 1 mg/kg (n=5), or 2 mg/kg (n=6) of NaI. To be certain that all animals in the study were treated in a similar way, the area at risk (AAR) as a proportion of the left ventricle was determined (FIG. 1). Area at risk (AAR) and infarct size (Inf) were measured using the specific dyes TTC and Evans blue. Processed images were generated in an unbiased way by setting constant thresholds and allowing Photoshop® to generate the images that were quantitated to generate the data presented in FIG. 1.
An additional test was performed under the same conditions but using an expanded range of concentration of NaI.

The nature of data set [8]: Oxidation of selenide in water or glutathione solution (visual darkening). The class given is physicochemical. Conditions: 50 mM selenide in 150 mM GSH vs in water, 8 minutes immediately following preparation. On the procedure:
The photographs show samples of 50 mM selenide in either water (FIG. 5A) or 150 mM GSH (FIG. 5B) over the eight minutes immediately following preparation.

Another data set deals with hypoxic injuries. Conditions: mice and rats; PCT Publication No. WO2005/041655; cited from earlier work.

With `[I-].[Na+]` [NaI, sodium iodide], in data set [1] (highest concentration), the “tritiated thymidine labeling (DNA synthesis)” value is on record as “reduced the amount of labeling”. Further, the “infarct size (morphometry)” value is given as “statistically significant decreases in infarct size” in data set [2] (drinking water 0.77 or 7.07 mg/kg/day for two days prior to LAD ligation vs normal water (0.07 mg/kg/day)); “statistically significant decreases in infarct size” in data set [5] (1 mg/kg NaI i.v. 5 minutes or 48 hours before LAD ligation, vs saline group (FIG. 3)); “statistically significant decreases in infarct size” in data set [7] (NaI 0.25, 0.5, 1 or 2 mg/kg into femoral vein at 55 minutes of ischemia, 2 hours of reperfusion, vs saline group (FIG. 1)); “statistically significant decreases in infarct size” in data set [7] (additional test, same conditions, expanded range of concentration of NaI, vs saline group (FIG. 2)). Moreover, in data set [2] (drinking water pre-treatment for two days), the “decrease in infarct size compared with iodide i.v. at the time of reperfusion” value is given as “somewhat less or comparable”. In addition, the “left ventricle ejection fraction” value in data set [3] is reported as “statistically significant increases”. Further, the “left ventricle fractional shortening” value in data set [3] is “statistically significant increases”. The “plasma troponin levels (cTpnI)” value in data set [4] (4 and 24 hr) was “consistently lower”. For the same compound, the infarct size entry in [4] (24 hrs) was “smaller”. In addition, the “reduction in infarct size in comparison to vehicle alone” value in [5] (pre-treatment 1 mg/kg NaI 5 minutes or 48 hours before LAD ligation) and in data set [7] (each dosage tested (0.25-2 mg/kg NaI i.v. at 55 minutes of ischemia)) was “approximately 70%” in each case. The “protective effect by echocardiography (LV ejection fraction, fractional shortening)” value in data set [6] was “protective effect of NAI was confirmed by echocardiography”.

On to selenide, for which, in data set [1] (all concentrations), the “tritiated thymidine labeling (DNA synthesis)” value is given as “reduced the labeling to control levels”. The “oxidation of selenide (dark oxidized forms)” value in [8] was “reduced levels of oxidation at each time point”.

On to sulfide, for which, in the data set on hypoxic injuries, the “metabolism and protection from hypoxic injuries” value is “can reduce metabolism and protect mice and rats from hypoxic injuries”.

Source of the values: patent publication US12016880B2, “Halogen treatment of heart attack and ischemic injury” (Fred Hutchinson Cancer Center, priority 2014, dated 2024).
